From ChEMBL document CHEMBL3045887, “Synthesis and anticonvulsant activity of some N-(benzoyl)glycinanilide derivatives” (Med Chem Res, 2013)
The source made the active and inactive calls. The calls are words filed in the database; no cut-off is given here.

Legend:
Mus musculus [1] = assay: Anticonvulsant activity in Swiss albino Mus musculus (mouse) assessed as protection against ScMet-induced myoclonic-clonic seizures at 300 mg/kg, ip measured at 0.5 hr; type: functional, organism-based; parameters: dose 300 mg/kg
Mus musculus [2] = assay: Anticonvulsant activity in Swiss albino Mus musculus (mouse) assessed as protection against maximal electric shock-induced tonic-clonic seizures at 30 mg/kg, ip measured at 0.5 hr; type: functional, organism-based; parameters: dose 30 mg/kg
Mus musculus [3] = assay: Anticonvulsant activity in Swiss albino Mus musculus (mouse) assessed as protection against maximal electric shock-induced tonic-clonic seizures at 300 mg/kg, ip measured at 4 hr; type: functional, organism-based; parameters: dose 300 mg/kg
Mus musculus [4] = assay: Neurotoxicity against Swiss albino Mus musculus (mouse) at 100 mg/kg, ip measured at 0.5 hr; type: toxicity, organism-based; parameters: dose 100 mg/kg, route intraperitoneal; settings: in vivo
Mus musculus [5] = assay: Anticonvulsant activity in Swiss albino Mus musculus (mouse) assessed as protection against ScMet-induced myoclonic-clonic seizures at 100 mg/kg, ip measured at 4 hr; type: functional, organism-based; parameters: dose 100 mg/kg
Mus musculus [6] = assay: Anticonvulsant activity in Swiss albino Mus musculus (mouse) assessed as protection against maximal electric shock-induced tonic-clonic seizures at 300 mg/kg, ip measured at 0.5 hr; type: functional, organism-based; parameters: dose 300 mg/kg
Mus musculus [7] = assay: Anticonvulsant activity in Swiss albino Mus musculus (mouse) assessed as protection against ScMet-induced myoclonic-clonic seizures at 300 mg/kg, ip measured at 4 hr; type: functional, organism-based; parameters: dose 300 mg/kg
Mus musculus [8] = assay: Neurotoxicity against Swiss albino Mus musculus (mouse) at 30 mg/kg, ip measured at 0.5 hr; type: toxicity, organism-based; parameters: dose 30 mg/kg, route intraperitoneal; settings: in vivo
Mus musculus [9] = assay: Neurotoxicity against Swiss albino Mus musculus (mouse) at 30 mg/kg, ip measured at 4 hr; type: toxicity, organism-based; parameters: dose 30 mg/kg, route intraperitoneal; settings: in vivo
Mus musculus [10] = assay: Anticonvulsant activity in Swiss albino Mus musculus (mouse) assessed as protection against maximal electric shock-induced tonic-clonic seizures at 100 mg/kg, ip measured at 0.5 hr; type: functional, organism-based; parameters: dose 100 mg/kg
Mus musculus [11] = assay: Anticonvulsant activity in Swiss albino Mus musculus (mouse) assessed as protection against maximal electric shock-induced tonic-clonic seizures at 30 mg/kg, ip measured at 4 hr; type: functional, organism-based; parameters: dose 30 mg/kg
Mus musculus [12] = assay: Anticonvulsant activity in Swiss albino Mus musculus (mouse) assessed as protection against ScMet-induced myoclonic-clonic seizures at 30 mg/kg, ip measured at 0.5 hr; type: functional, organism-based; parameters: dose 30 mg/kg
Mus musculus [13] = assay: Anticonvulsant activity in Swiss albino Mus musculus (mouse) assessed as protection against ScMet-induced myoclonic-clonic seizures at 30 mg/kg, ip measured at 4 hr; type: functional, organism-based; parameters: dose 30 mg/kg
Mus musculus [14] = assay: Neurotoxicity against Swiss albino Mus musculus (mouse) at 300 mg/kg, ip measured at 0.5 hr; type: toxicity, organism-based; parameters: dose 300 mg/kg, route intraperitoneal; settings: in vivo
Mus musculus [15] = assay: Neurotoxicity against Swiss albino Mus musculus (mouse) at 100 mg/kg, ip measured at 4 hr; type: toxicity, organism-based; parameters: dose 100 mg/kg, route intraperitoneal; settings: in vivo
Mus musculus [16] = assay: Neurotoxicity against Swiss albino Mus musculus (mouse) at 300 mg/kg, ip measured at 4 hr; type: toxicity, organism-based; parameters: dose 300 mg/kg, route intraperitoneal; settings: in vivo
Mus musculus [17] = assay: Anticonvulsant activity in Swiss albino Mus musculus (mouse) assessed as protection against ScMet-induced myoclonic-clonic seizures at 100 mg/kg, ip measured at 0.5 hr; type: functional, organism-based; parameters: dose 100 mg/kg
Mus musculus [18] = assay: Anticonvulsant activity in Swiss albino Mus musculus (mouse) assessed as protection against maximal electric shock-induced tonic-clonic seizures at 100 mg/kg, ip measured at 4 hr; type: functional, organism-based; parameters: dose 100 mg/kg

Structure (SMILES) | Activity (Mus musculus [1]) | Activity (Mus musculus [2]) | Activity (Mus musculus [3]) | Activity (Mus musculus [4]) | Activity (Mus musculus [5]) | Activity (Mus musculus [6]) | Activity (Mus musculus [7]) | Activity (Mus musculus [8]) | Activity (Mus musculus [9]) | Activity (Mus musculus [10]) | Activity (Mus musculus [11]) | Activity (Mus musculus [12]) | Activity (Mus musculus [13]) | Activity (Mus musculus [14]) | Activity (Mus musculus [15]) | Activity (Mus musculus [16]) | Activity (Mus musculus [17]) | Activity (Mus musculus [18])
COc1ccc(NC(=O)CNC(=O)c2ccccc2)cc1 | inactive | inactive | Active | Non-toxic | inactive | Active | inactive | Non-toxic | Non-toxic | Active | inactive | inactive | inactive | Non-toxic | Non-toxic | Non-toxic | inactive | inactive
Cc1ccccc1NC(=O)CNC(=O)c1ccccc1 | inactive | inactive | inactive | Non-toxic | inactive | Active | inactive | Non-toxic | Non-toxic | inactive | inactive | inactive | inactive | Non-toxic | Non-toxic | Non-toxic | inactive | inactive
O=C(CNC(=O)c1ccccc1Cl)Nc1ccccc1 | inactive | inactive | Active | Non-toxic | inactive | inactive | inactive | Non-toxic | Non-toxic | inactive | inactive | inactive | inactive | Non-toxic | Non-toxic | Non-toxic | inactive | inactive
O=C(CNC(=O)c1ccccc1)Nc1ccccc1 | inactive | inactive | inactive | Non-toxic | inactive | Active | inactive | Non-toxic | Non-toxic | inactive | inactive | inactive | inactive | Non-toxic | Non-toxic | Non-toxic | inactive | inactive
O=C(CNC(=O)c1ccccc1)Nc1ccccc1Cl | inactive | inactive | inactive | Non-toxic | inactive | inactive | inactive | Non-toxic | Non-toxic | inactive | inactive | inactive | inactive | Non-toxic | Non-toxic | Non-toxic | inactive | inactive
Cc1cccc(C)c1NC(=O)CNC(=O)c1ccccc1 | inactive | inactive | Active | Non-toxic | inactive | inactive | inactive | Non-toxic | Non-toxic | inactive | inactive | inactive | inactive | Non-toxic | Non-toxic | Non-toxic | inactive | Active
O=C(CNC(=O)c1ccc([N+](=O)[O-])cc1)Nc1ccccc1 | Active | inactive | inactive | Non-toxic | inactive | inactive | Active | Non-toxic | Non-toxic | inactive | inactive | inactive | inactive | Non-toxic | Non-toxic | Non-toxic | inactive | inactive
CC(C)c1ccccc1NC(=O)CNC(=O)c1ccccc1 | inactive | inactive | inactive | Non-toxic | inactive | Active | inactive | Non-toxic | Non-toxic | inactive | inactive | inactive | inactive | Non-toxic | Non-toxic | Non-toxic | inactive | inactive
COc1ccccc1NC(=O)CNC(=O)c1ccccc1 | inactive | inactive | inactive | Non-toxic | inactive | inactive | inactive | Non-toxic | Non-toxic | inactive | inactive | inactive | inactive | Non-toxic | Non-toxic | Non-toxic | inactive | inactive
CCc1ccccc1NC(=O)CNC(=O)c1ccccc1 | inactive | inactive | inactive | Non-toxic | inactive | inactive | inactive | Non-toxic | Non-toxic | inactive | inactive | inactive | inactive | Non-toxic | Non-toxic | Non-toxic | inactive | inactive
Cc1ccc(C(=O)NCC(=O)Nc2ccccc2)cc1 | Active | inactive | inactive | Non-toxic | inactive | inactive | inactive | Non-toxic | Non-toxic | inactive | inactive | inactive | inactive | Non-toxic | Non-toxic | Non-toxic | inactive | inactive
